Earlier results in US20170209405A1, “APPLICATION OF COMPOUND MIXTURES TO CONTROL OXIDATION” (priority 2016, published 2017).

Tests used:
[1] = adults
[2] = test system: sperm DNA damage (DNA-strand breaks); settings: men aged 45 and up, highest dosages of vitamin C (up to 700 mg daily)

| Structure (SMILES) | dose above which it may be toxic to the liver [1] | less DNA damage than those who took less of the supplements [2] [%] |
| --- | --- | --- |
| NC(=O)c1cccnc1 [nicotinamide] | exceeding 3 g/day |  |
| O=C1O[C@H]([C@@H](O)CO)C(O)=C1O [vitamin C] |  | 20 |
